According to paper PMC3878165 (Bioorganic & Medicinal Chemistry Letters, 2013):

Columns and labels:
[1] = test system: Eurofins lead-profiling screen; assay type: binding
[2] = target: melatonin MT1 receptor (Homo sapiens, UniProt P48039); assay type: binding
[3] = target: PLpro (Severe acute respiratory syndrome coronavirus, UniProt P0C6U8); test: biochemical; set-up: species or system SARS-CoV

Chain of melatonin MT1 receptor (P48039 whole entry): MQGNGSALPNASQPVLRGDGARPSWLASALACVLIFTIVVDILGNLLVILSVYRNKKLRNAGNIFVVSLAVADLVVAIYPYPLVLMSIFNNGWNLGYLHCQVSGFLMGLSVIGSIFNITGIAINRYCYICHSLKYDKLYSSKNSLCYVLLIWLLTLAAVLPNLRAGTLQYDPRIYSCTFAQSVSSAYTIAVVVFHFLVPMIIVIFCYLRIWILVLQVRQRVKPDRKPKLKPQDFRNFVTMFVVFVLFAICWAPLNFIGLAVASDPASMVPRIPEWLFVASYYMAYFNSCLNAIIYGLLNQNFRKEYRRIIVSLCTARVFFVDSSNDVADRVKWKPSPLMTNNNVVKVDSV

SMILES | Eurofins Profiler Screen result in words [1] | melatonin MT1 receptor activity in words [2] | IC50 [3] [µM]
O=C(Nc1ccc(N(Cc2ccsc2)C(=O)Cn2nnc3ccccc32)cc1)C1CC1 [16e] | highly selective | modest activity | –
CCC(C)(C)NC(=O)[C@@H](c1ccn(C)c1)N(C(=O)Cn1nnc2ccccc21)c1ccc(NC(C)=O)cc1 [compound 7] | – | – | > 60
